Measurements taken from PubChem BioAssay (NCI).
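Assay format: 96-well plates, 48-hour exposure. The concentration for full growth arrest is given as TGI.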

Columns and labels:
Test in all cases: NCI tumour cell line growth inhibition, 48 h
CCRF-CEM leukemia = system: CCRF-CEM leukemia
EKVX NSCLC = system: EKVX NSCLC
HCT-15 colon = system: HCT-15 colon
HOP-62 NSCLC = system: HOP-62 NSCLC
M14 melanoma = system: M14 melanoma
MDA-MB-231 breast = system: MDA-MB-231 breast
MDA-N = system: MDA-N
NCI-H23 lung = system: NCI-H23 lung
OVCAR-3 ovarian = system: OVCAR-3 ovarian
OVCAR-5 ovarian = system: OVCAR-5 ovarian
OVCAR-8 ovarian = system: OVCAR-8 ovarian
SF-295 CNS = system: SF-295 CNS
SF-539 CNS = system: SF-539 CNS
SK-MEL-28 melanoma = system: SK-MEL-28 melanoma
SK-MEL-5 melanoma = system: SK-MEL-5 melanoma
SK-OV-3 ovarian = system: SK-OV-3 ovarian
SNB-19 CNS = system: SNB-19 CNS
T-47D breast = system: T-47D breast
UACC-62 melanoma = system: UACC-62 melanoma
BT-549 breast = system: BT-549 breast

Row | Structure (SMILES) | TGI (CCRF-CEM leukemia) [µM] | TGI (EKVX NSCLC) [µM] | TGI (HCT-15 colon) [µM] | TGI (HOP-62 NSCLC) [µM] | TGI (M14 melanoma) [µM] | TGI (MDA-MB-231 breast) [µM] | TGI (MDA-N) [µM] | TGI (NCI-H23 lung) [µM] | TGI (OVCAR-3 ovarian) [µM] | TGI (OVCAR-5 ovarian) [µM] | TGI (OVCAR-8 ovarian) [µM] | TGI (SF-295 CNS) [µM] | TGI (SF-539 CNS) [µM] | TGI (SK-MEL-28 melanoma) [µM] | TGI (SK-MEL-5 melanoma) [µM] | TGI (SK-OV-3 ovarian) [µM] | TGI (SNB-19 CNS) [µM] | TGI (T-47D breast) [µM] | TGI (UACC-62 melanoma) [µM] | TGI (BT-549 breast) [µM]
1 | ClCCN1CCOC1=Nc1ccc2c(c1)CCCC2 | 35.7 | 42.3 | 48.6 | 22 | 33 | 31.7 | 28.3 | 26.7 | 29.3 | 32.4 | 17.3 | 31.9 | 17.9 | 39.1 | 7.38 | 74.9 | 17.8 | 41.1 | 27.9 | –
2 | C1=Nc2sc3c(c2C2=NCCN12)CCCC3 | – | 32 | 30.4 | 37.2 | – | 30.3 | 35.5 | 29.3 | 32.3 | 35.9 | 32.1 | 39.6 | – | 41 | 34.3 | – | 34.9 | 39.9 | 29 | 28.7
3 | CCC(=O)N1NC(=O)C(CC)(CC)C1=O | > 100 | > 100 | > 100 | > 100 | > 100 | > 100 | > 100 | > 100 | > 100 | > 100 | > 100 | > 100 | – | > 100 | > 100 | > 100 | > 100 | > 100 | > 100 | > 100
4 | C=CCCCC1SC2=C(CC)CCCN2C1=O (stereo not given) | – | > 100 | > 100 | > 100 | > 100 | > 100 | > 100 | > 100 | > 100 | > 100 | > 100 | > 100 | > 100 | > 100 | > 100 | > 100 | > 100 | > 100 | > 100 | > 100
5 | COCc1cc2c(cc1/C(=C/[N+](=O)[O-])CS(=O)(=O)c1ccccc1)OCO2 | > 100 | > 100 | > 100 | > 100 | > 100 | – | > 100 | > 100 | > 100 | > 100 | > 100 | > 100 | > 100 | > 100 | > 100 | > 100 | – | > 100 | > 100 | –
6 | COc1cc(/C=C/C(=O)OCCc2ccccc2)ccc1O | – | 33.5 | 44.6 | 33.4 | 29 | 30.6 | 34.4 | 36.5 | 36.9 | 32.8 | 79.3 | 35.3 | 36.7 | 26.9 | 33.7 | 29.7 | 33.9 | 33.2 | 26 | 28.1
7 | COc1ccc(OC)c(C23CCCC(C2)N(C)CC3)c1 (stereo not given) | – | > 100 | > 100 | – | 34.1 | > 100 | 74.6 | > 100 | 46.7 | > 100 | – | 66.2 | – | – | – | – | 49 | > 100 | 46 | > 100
8 | CCCCOC(=O)NC(Nc1ccc(S(=O)(=O)Nc2ccc(OC)nn2)cc1)(C(F)(F)F)C(F)(F)F | > 100 | > 100 | > 100 | > 100 | > 100 | > 100 | > 100 | > 100 | > 100 | > 100 | > 100 | > 100 | > 100 | > 100 | > 100 | > 100 | > 100 | > 100 | > 100 | –
9 | O1C2C1C1OC1C1OC1C1OC21 (stereo not given) | > 100 | > 100 | > 100 | > 100 | > 100 | > 100 | > 100 | > 100 | – | > 100 | > 100 | > 100 | – | > 100 | > 100 | > 100 | > 100 | > 100 | > 100 | > 100
10 | COc1ccc(/C=C2\N=C3Sc4c(nc[nH]c4=O)N3C2=O)cc1 | > 100 | > 100 | > 100 | > 100 | > 100 | > 100 | > 100 | > 100 | > 100 | > 100 | > 100 | > 100 | > 100 | > 100 | > 100 | > 100 | > 100 | > 100 | – | –
11 | C=C1CCCCCCCCCCC12SCCC2CCCCSC (stereo not given) | – | 86.4 | 73.4 | 40.9 | 50.1 | 39 | > 100 | 56.9 | 34.1 | 40 | 56.4 | 38.3 | 38.3 | 57.8 | 33.1 | > 100 | 52.2 | 43.8 | 76 | –
12 | C=CCn1c(C23CC4CC(CC(C4)C2)C3)n[nH]c1=S | > 100 | – | > 100 | > 100 | > 100 | > 100 | > 100 | > 100 | > 100 | > 100 | > 100 | > 100 | > 100 | > 100 | – | > 100 | > 100 | > 100 | > 100 | > 100
13 | COc1ccc2c(c1)c1c(n2CCN(C)C)-c2cccc(OC)c2CC1 | 15.1 | 35 | 45.9 | 27.6 | 24.9 | 35.2 | 26.1 | 36.9 | 30.9 | 29.8 | 42.4 | 35.9 | – | 32 | 35 | 35 | 46.8 | 27.7 | 34.6 | 40.5
14 | CCN(CC)CCCNc1nc(=O)[nH]c(C)c1C(=O)Nc1c2ccccc2nc2ccccc12 | > 100 | 74.5 | 72.8 | > 100 | > 100 | 51.3 | 23.7 | 42.8 | 51.6 | > 100 | 59.1 | 27.3 | 41.8 | > 100 | 29 | 59 | 62.2 | 73.5 | 36.4 | –
15 | CCOP(=O)(OCC)C(N)Cc1ccc(OC)c(OC)c1 (stereo not given) | > 100 | – | > 100 | – | > 100 | > 100 | > 100 | > 100 | > 100 | > 100 | > 100 | > 100 | > 100 | > 100 | > 100 | – | > 100 | > 100 | > 100 | > 100
16 | Cc1ccc(/C(=C\C(=O)C(=O)NC23CC4CC(CC(C4)C2)C3)Sc2ccccc2)cc1 | > 10 | > 10 | > 10 | > 10 | > 10 | > 10 | > 10 | > 10 | > 10 | > 10 | > 10 | > 10 | > 10 | > 10 | > 10 | > 10 | – | > 10 | – | –
17 | O=c1oc2ccccc2c(O)c1C1c2c(c3ccccc3oc2=O)Oc2c1c(=O)oc1ccccc21 | > 100 | > 100 | > 100 | > 100 | – | 71.2 | 37.3 | 89.2 | > 100 | – | > 100 | – | – | 97.8 | 52.1 | – | > 100 | > 100 | 47.5 | 67.5
18 | CCOC(=O)C(C)(C(=O)OCC)/C(Cl)=C\Cl | > 100 | > 100 | – | > 100 | > 100 | > 100 | > 100 | > 100 | > 100 | > 100 | > 100 | > 100 | > 100 | > 100 | > 100 | > 100 | > 100 | > 100 | > 100 | –
19 | O=c1[nH]c(=O)n(C2OC(CO)C(O)C2O)c2ccsc12 (stereo not given) | > 100 | > 100 | > 100 | > 100 | > 100 | > 100 | > 100 | > 100 | > 100 | > 100 | – | > 100 | > 100 | > 100 | > 100 | – | – | – | – | > 100
20 | CN1C(=O)N/C(=C\c2ccc(S(=O)(=O)N/N=C\C(O)C(O)C(O)CO)cc2)C1=O (stereo not given) | > 100 | > 100 | > 100 | > 100 | > 100 | > 100 | > 100 | > 100 | > 100 | > 100 | > 100 | > 100 | – | > 100 | > 100 | > 100 | > 100 | > 100 | > 100 | > 100
21 | O=C1/C(=C/c2ccc(Cl)cc2)N=C(c2ccccc2)N1c1nc2ccccc2s1 | > 100 | > 100 | > 100 | > 100 | > 100 | > 100 | > 100 | > 100 | > 100 | > 100 | > 100 | > 100 | > 100 | > 100 | > 100 | > 100 | – | > 100 | – | –
22 | CC(=O)OC(C)c1cc2c(s1)C(=O)c1scc(C(C)OC(C)=O)c1C2=O (stereo not given) | – | 2.2 | 0.381 | 0.44 | 0.238 | – | 0.256 | 0.398 | – | 2.74 | 0.546 | 0.323 | 0.36 | 0.378 | 0.208 | 4.33 | 0.454 | 2.1 | 0.418 | 0.426
23 | CCOC(=O)C1=C(C)OC(=O)[C@@]2(OC)C=C(Cl)[C@@]12C | > 100 | > 100 | > 100 | > 100 | > 100 | > 100 | > 100 | > 100 | > 100 | > 100 | > 100 | > 100 | > 100 | > 100 | > 100 | > 100 | > 100 | – | > 100 | > 100
24 | CN(C)CCNC(=O)Cn1cc([N+](=O)[O-])c(=O)c2ccccc21 | > 100 | – | > 100 | > 100 | > 100 | > 100 | > 100 | > 100 | > 100 | > 100 | > 100 | > 100 | > 100 | > 100 | > 100 | > 100 | > 100 | > 100 | > 100 | > 100
25 | O=C(O)[C@@H]1CCC(=O)N1C(c1ccc2c(c1)OCO2)c1ccc2c(c1)OCO2 | – | > 100 | > 100 | > 100 | > 100 | > 100 | > 100 | > 100 | > 100 | > 100 | > 100 | > 100 | > 100 | > 100 | > 100 | – | > 100 | > 100 | > 100 | > 100
26 | COc1cc(=O)n2c3ccccc3n(C)c2c1C#N | > 100 | > 100 | > 100 | > 100 | > 100 | > 100 | > 100 | > 100 | > 100 | > 100 | > 100 | > 100 | > 100 | – | > 100 | > 100 | > 100 | – | > 100 | > 100
